Test results taken from US4786755A, “Diphenic acid monoamides” (Warner-Lambert Company, priority 1986, dated 1988).
Where two headings read alike, the source gives them in different places.

Test system: Human Basophils
Test: Histamine Release from Human Basophils (HHB)
Format: cell-based
Conditions: for inhibition at 33 µM: Homo sapiens, 33 μM cpd.
From the text: Histamine Release from Human Basophils (HHB) Procedure for Quantitating Active Histamine Release, and its Inhibition by Drugs, from Basophils of Human Blood Using an Automated Fluorometric Histamine Assay
Mediator (histamine) release from human blood basophils is an assay which provides a model for evaluating potential antiallergy (mediator release inhibitors) compounds.
Blood from allergic donors is obtained from volunteers through the Community Research Clinic. The leukocytes are removed after Hespan® sedimentation, washed and concentrated using calcium and magnesium free Hepes buffered saline and resuspended in Hepes Hepes buffered saline with 1 mM calcium and magnesium added back. The cells are incubated briefly at room temperature with either buffer alone (for measuring spontaneous release and challenge agent stimulated release) 6% perchloric acid (for measuring total available histamine in the cells) or drug at various concentrations. The cells are then either treated with buffer alone (to measure control spontaneous and drug effect on spontaneous release) or appropriate challenge agent (e.g., anti-IgE, antigen) mixed and incubated for 45 minutes at 37° C. in a shaking water bath. The reaction is stopped by centrifugation and the supernate is poured into autoanalyzer sample cups and samples assayed for assayed for histamine content using an automated fluorometric assay. By comparing the histamine release of drug-treated cells and the challenge agent controls, drug inhibition of mediator (histamine) release can be evaluated.
Histamine release is induced by (1) an aqueous antigen extract (short rageweed or house dust), or (2) anti-IgE antisera. Whole human blood is obtained from volunteers through the Community Research Clinic (CRC-92). Volunteers are chosen on the basis of adequate histamine release induced by antigen, or antiIgE antisera challenge. Leukocytes are incubated in vitro with the challenge agents at several concentrations. Dose-response curves for each volunteer, using each challenge agent, are generated. Test compounds are evaluated for inhibition of a near maximal response to one or more challenge agents. By including appropriate controls, it is possble to measure the effect of the test compound, at various concentrations, in several ways: (1) the effect of the compound on histamine release for each challenge agent; (2) the effect of the test compound on spontaneous release of histamine in the absence of the challenge agent (buffer alone); and (3) the effect of the test compound on the histamine assay.
Histamine is assayed using an automated continuous flow system which quantitates samples of 0.4 ml or more in volume, and concentrations of approximately 0.5 ng/ml or more. The rate of analysis is 30 samples/hour.
Methods of preparing leukocytes for this assay are described by Theuson, et al, J. of Immunology, Vol. 123, p. 426 (1979).
Samples are run in triplicate, using either 1.5 ml polypropylene capped reaction tubes, or 5.0 ml plastic uncapped tubes. Test compounds and challenge agents are prepared in HACM buffer, as described above. Fixed volume pipettes are used.
Test compound or vehicle control is added to three reaction tubes at 1.5×the final desired concentration (i.e., 400 μl of test compound per 600 μl total reaction volume). One hundred μl of cells is added to each tube and the mixture is incubated for eight minutes at room temperature, and two minutes at 37° C. before antigen or other stimulus challenge. One hundred μl of the challenge agent at 6× the final concentration is then added, and the final mixture is incubated at 37° C. for 45 minutes in a shaking water bath. This ensures that the cell preparation is constantly in suspension. The reaction is stopped by centrifugation at 2000 RPM for three minutes at 4° C. The supernate (.perspectiveto.500 μl) is poured into 2.0 ml autoanalyzer beakers and assayed for histamine by the fluorometric method. […]

[1] = Tripeptide challenge, read-out: HHB (Tripeptide), percent inhibition of histamine release
[2] = antigen challenge, read-out: HHB (antigen), percent inhibition of histamine release

| Structure (SMILES) | inhibition at 33 µM [1] [%] | inhibition at 33 µM [2] [%] | HHB (antigen), percent inhibition of histamine release @ 10 (@ 10, antigen challenge) |
| --- | --- | --- | --- |
| O=C(O)c1ccccc1-c1ccccc1C(=O)Nc1ccc(Cc2ccc(Cl)c(Cl)c2)cc1 [Example 9] | 100 | 87 | – |
| O=C(O)c1ccccc1-c1ccccc1C(=O)Nc1ccc(CCCCc2ccc(Cl)c(Cl)c2)cc1 [Example 15, [1,1'-Biphenyl]-2-carboxylic acid, 2'-[[[4-[4-(3,4-dichlorophenyl)butyl]phenyl]amino]carbonyl]-] | -17 | – | 39 |
| O=C(O)c1ccccc1-c1ccccc1C(=O)Nc1ccc(OCCCc2ccccc2)cc1 [Example 2] | 96 | 12 | – |
| O=C(O)c1ccccc1-c1ccccc1C(=O)Nc1ccc(CCc2ccc(Cl)c(Cl)c2)cc1 [Example 3, [1,1'-Biphenyl]-2-carboxylic acid, 2'-[[[4-[2-(3,4-dichlorophenyl)ethyl]phenyl]amino]carbonyl]-] | 93 | 94 | – |
| CN(C(=O)c1ccccc1-c1ccccc1C(=O)O)c1ccc(CCc2ccc(Cl)c(Cl)c2)cc1 [Example 5, [1,1'-Biphenyl]-2-carboxylic acid, 2'-[[[4-[2-(3,4-dichlorophenyl)ethyl]phenyl]methylamino]carbonyl]-] | 83 | 72 | – |
| CN(C(=O)c1ccccc1-c1ccccc1C(=O)O)c1ccc(CCc2ccc(Cl)cc2)cc1 [Example 8] | 111 | 67 | – |
| O=C(O)c1ccccc1-c1ccccc1C(=O)Nc1ccc(CCCCCc2ccccc2)cc1 [Example 21, [1,1'-Biphenyl]-2-carboxylic acid, 2'-[[[4-(5-phenylpentyl)phenyl]amino]carbonyl]-] | 93 | 91 | – |
| O=C(O)c1ccccc1-c1ccccc1C(=O)Nc1ccc(CCCc2ccc(Cl)c(Cl)c2)cc1 [Example 1, [1,1'-Biphenyl]-2-carboxylic acid, 2'-[[[4-[3-(3,4-dichlorophenyl)propyl]phenyl]amino]carbonyl]-] | 72 | 72 | – |
| O=C(O)c1ccccc1-c1ccccc1C(=O)Nc1ccc(CCCCc2ccccc2)cc1 [Example 19, [1,1'-Biphenyl]-2-carboxylic acid, 2'-[[[4-(4-phenylbutyl)phenyl]amino]carbonyl]-] | 90 | 59 | – |
| O=C(O)c1ccccc1-c1ccccc1C(=O)Nc1ccc(CCCc2ccccc2)cc1 [Example 16, [1,1'-Biphenyl]-2-carboxylic acid, 2'-[[[4-(3-phenylpropyl]phenyl]amino]carbonyl]-] | 84 | – | – |
| COc1ccc(CCc2ccc(NC(=O)c3ccccc3-c3ccccc3C(=O)O)cc2)cc1OC [Example 7, [1,1'-Biphenyl]-2-carboxylic acid, 2'-[[[4-[2-(3,4-dimethoxyphenyl)ethyl]phenyl]amino]carbonyl]-] | 93 | -5 | – |
| O=C(O)c1ccccc1-c1ccccc1C(=O)Nc1cccc(CCc2ccc(Cl)c(Cl)c2)c1 [Example 4, [1,1'-Biphenyl]-2-carboxylic acid, 2'-[[[3-[2-(3,4-dichlorophenyl)ethyl]phenyl]amino]carbonyl]-] | 97 | 101 | – |
